Laboratory results taken from PMC12035797, “Peptidomimetics Activating the Proteasome: A New Perspective for Parkinson’s Treatment” (Journal of Medicinal Chemistry, 2025).
*1 amine or outer side, *2 acyl side, *3 side chain or, on linkers, in order; H or OH if unused. Where a SMILES comes first, the peptide text is derived from it. [ ]: non-standard residue; d: D form. X2 = N=C(N)NCCC[C@@H](C(=O)[*:2])N(c1ccc([N+](=O)[O-])c2nonc12)[*:1]; Nlys = NCCCCNCC(=O)O

Columns and labels:
[1] = PAMPA, blood–brain barrier mimic; type: in vitro ADME; settings: 500 μM, 37 °C, 22 h
From the text: In neurodegenerative diseases, proteins prone to aggregation accumulate in the neuronal cells. Therefore, a necessary feature of potential drugs is not only permeability across the cell membrane but also the ability to cross the blood-brain barrier (BBB). To preliminarily investigate this feature, we performed parallel artificial membrane permeation assays (PAMPA) including as positive controls propranolol and Tat47-57, known for their ability to penetrate the blood-brain barrier. Dopamine hydrobromide was included as a negative control. For comparison, we also tested compound 1a, which is devoid of a CPP sequence. […] The PAMPA was performed as previously described.[21] Briefly, a 2% solution of porcine brain lipid membrane (PBL; Avanti Polar Lipids Inc., Alabaster, AL, USA) in anhydrous dodecane was used as a mimic of the blood-brain barrier. Propranolol hydrochloride (Merck, Darmstadt, Germany) and Tat47-57 (synthesized in-house) served as positive controls, while dopamine hydrobromide (Merck, Darmstadt, Germany) was used as a negative control. Stock solutions of the tested compounds and controls were prepared at a concentration of 10 mM in deionized water and then diluted to 500 μM using 0.1 M PBS containing 5% DMSO. The donor-acceptor plate assembly was incubated at 37 °C while being shaken at 250 rpm for 22 h. Absorbance at 290 nm was measured for propranolol using an Infinite […] plate reader (Infinite […] plate reader, Tecan). For the other samples, fluorescence measurements were performed after the compounds were reacted with 0.02% fluorescamine. The rate of passive diffusion was calculated as the linear velocity of permeation (Pe). The data represent an average of three independent biological replicates.

human 20S proteasome = tested on: T1, human 20S proteasome; test: h20S proteasome activity probed with FRET-type Dabcyl-EDANS substrate; type: biochemical
T1 construct: human proteasome isolated from erythrocytes; from tissue; host or cells: human erythrocytes
From the text: To assess the influence of substitutions increasing proteolytic stability on the modulators’ capacity to stimulate chymotrypsin-like, trypsin-like, and caspase-like activity of h20S, we used classic fluorogenic substrates: Suc-LLVY-AMC, Boc-LRR-AMC, and Z-LLE-AMC, respectively. To confirm the observed stimulating capacity, we also conducted assays using a FRET-type reporter peptide with a sequence consisting of 11 residues (Lys(Dabcyl)-[…]EDANS)-Gly).[27] As we checked, the activated 20S hydrolyzed this substrate after more than one residue (Lys, Gly, and Glu), which makes it a probe better reflecting the concerted action of the proteasome’s three peptidases. […] The discrepancy in the level of activation was mainly due to the greater sensitivity of the FRET substrate, as it is not digested, unlike the AMC-based probes, by the latent proteasome, which results in greater differences in fluorescence relative to the controls. […] The ability to affect individual peptidases of the proteasome in different ways is most likely related to the allosteric mechanism of action of the modulators. Binding at a site distant from the catalytic compartment may result in greater diversity in the pathways by which the signal reaches active sites and differential effects of that signal on each peptidase.
(§1) The effect of all synthesized peptidomimetics on the catalytic activity of the proteasome was tested using a human proteasome isolated from erythrocytes. Suc-LLVY-AMC, Boc-LRR-AMC, and Z-LLE-AMC fluorogenic substrates (Bachem, Bubendorf, Switzerland) were used for assessment of the chymotrypsin-, trypsin-, and caspase-like activities, respectively. A homemade FRET-type substrate Dabcyl-EDANS (Lys(Dabcyl)-[…]EDANS)-Gly)[26] was used as an additional probe. Stock solutions of the substrates and tested peptidomimetics were prepared in dimethyl sulfoxide (DMSO), ensuring that the final concentration of DMSO in all samples remained consistent at 2%. The small fluorogenic substrates were used at a final concentration of 100 μM, while Dabcyl-EDANS was prepared at a final concentration of 15 μM. Modulators were tested in concentrations ranging from 1.0 to 50 μM, with compounds containing TAT or 6R sequences tested at lower concentrations ranging from 0.5 to 10 μM. Activity tests were conducted in 96-well plates using 50 mM Tris/HCl, pH 8.0, as an assay buffer. The final concentration of h20S proteasome was adjusted to 0.002 mg/mL (2.8 nM). The fluorescence of released aminomethylcoumarin (AMC) was monitored at 460 nm (λex was 380 nm), while the hydrolysis of Dabcyl-EDANS was detected by measuring emission at 493 nm (λex was set at 335 nm). Fluorescence measurements were taken continuously every 2 min over a 60 min period at 37 °C using a Tecan Infinite M200Pro spectrofluorometer (Tecan Trading AG, Männedorf, Switzerland). All activity assays were performed in at least three independent replicates. The relative activity was calculated in relation to the catalytic activity of the vehicle (DMSO)-treated latent proteasome, which was regarded as 100%. Statistical analysis was performed using the one-way ANOVA followed by Tukey’s post-hoc test. P-value <0.05 was considered statistically significant.

[2] = tested on: T2, human 20S proteasome, ChT-L peptidase; test: Chymotrypsin-like (ChT-L) activity of h20S probed with Suc-LLVY-AMC; type: biochemical; settings: 100 μM Suc-LLVY-AMC; level reached vs latent proteasome
T2 construct: human proteasome isolated from erythrocytes; from tissue; host or cells: human erythrocytes
Procedure: To assess the influence of substitutions increasing proteolytic stability on the modulators’ capacity to stimulate chymotrypsin-like, trypsin-like, and caspase-like activity of h20S, we used classic fluorogenic substrates: Suc-LLVY-AMC, Boc-LRR-AMC, and Z-LLE-AMC, respectively.
as §1, with “Modulators were tested in concentrations ranging from 1.0 to 50 μM, with compounds containing TAT or 6R sequences tested at lower concentrations ranging from 0.5 to 10 μM.” left out

HEK293T cells = test: Fluorescence microscopy of cell penetration of NBD-labeled activators; type: cell-based, human; settings: 10 μM, 3 h
Procedure: In order to verify the permeability of the constructs across cell membranes, we synthesized their analogues with an NBD fluorophore attached at the N-terminus. The excitation wavelength for this fluorophore is 467 nm, and the emission wavelength is 539 nm.
HEK293T cells were incubated in DMEM supplemented with 10% FBS and penicillin/streptomycin (100 units/mL/100 μg/mL), at 37 °C with 5% CO2. Cells were seeded on 24-well plates at a density of 3 × 10^4 cells per well and incubated in 0.5 mL of the complete medium for 48 h. Then, the fresh medium containing the modulators labeled with NBD fluorophore was added to each well at a concentration of 10 μM. Half an hour before the end of the incubation, 20 μL of Hoechst 33342 dye was added to each well, and then the plate was placed back in the incubator. After the 3 h incubation, cells were washed thoroughly with PBS, and a phenol red-free culture medium (FluoroBriteTM DMEM, Gibco/Thermo Fisher Scientific, Waltham, MA, USA) was added. Subsequently, the cells were examined using a Zeiss AXIO Observer D1 microscope (Carl Zeiss AG, Oberkochen, Germany) using an Alexa Fluor 488 filter.

Structure (SMILES)	permeability across artificial BBB membrane, PAMPA [1]	h20S stimulating capacity, Dabcyl-EDANS (human 20S proteasome; 15 μM Dabcyl-EDANS, 1.0-50 μM modulator)	stimulation of h20S activity, Dabcyl-EDANS probe (human 20S proteasome; 15 μM Dabcyl-EDANS, level reached vs latent proteasome)	h20S stimulating potency, Dabcyl-EDANS (human 20S proteasome; at the lowest concentrations)	stimulation of h20S activity, Suc-LLVY-AMC probe [2]	penetration into cells, NBD fluorescence (HEK293T cells)
C[C@@H](O)[C@H](NC(=O)[C@H](Cc1ccccc1)NC(=O)[C@H](Cc1ccc(O)cc1)NC(=O)CNCCCCN)C(=O)NCC(=O)N[C@@H](CO)C(=O)N[C@@H](CCCCN)C(=O)N[C@@H](CC(=O)O)C(=O)N[C@@H](Cc1c[nH]c2ccccc12)C(=O)N[C@@H](CCCNC(=N)N)C(=O)N[C@@H](CO)C(=O)N[C@@H](Cc1ccc(O)cc1)C(=O)N[C@@H](Cc1ccc(O)cc1)C(=O)N[C@@H](CO)C(=O)O [compound 1a] (H-[Nlys]YFTGSKDWRSYYS-OH)	at the level of a negative control	did not lose their ability to effectively stimulate h20S	12 fold	even more potent than 1	8 fold	
C[C@@H](O)[C@H](NC(=O)[C@H](Cc1ccccc1)NC(=O)[C@H](Cc1ccc(O)cc1)NC(=O)CN(CCCCN)C(=O)[C@H](CCCNC(=N)N)NC(=O)[C@H](CCCNC(=N)N)NC(=O)[C@H](CCCNC(=N)N)NC(=O)[C@H](CCC(N)=O)NC(=O)[C@H](CCCNC(=N)N)NC(=O)[C@H](CCCNC(=N)N)NC(=O)[C@H](CCCCN)NC(=O)[C@H](CCCCN)NC(=O)[C@H](CCCNC(=N)N)Nc1ccc([N+](=O)[O-])c2nonc12)C(=O)NCC(=O)N[C@@H](CO)C(=O)N[C@@H](CCCCN)C(=O)N[C@@H](CC(=O)O)C(=O)N[C@@H](Cc1c[nH]c2ccccc12)C(=O)N[C@@H](CCCNC(=N)N)C(=O)N[C@@H](CO)C(=O)N[C@@H](Cc1ccc(O)cc1)C(=O)N[C@@H](Cc1ccc(O)cc1)C(=O)N[C@@H](CO)C(=O)O [1f_NBD] (H-[X2]KKRRQRRR[Nlys]YFTGSKDWRSYYS-OH; C-terminus assumed)						fluorescence from the attached NBD tag is visible inside HEK293T cells
C[C@@H](O)[C@H](NC(=O)[C@H](Cc1ccccc1)NC(=O)[C@H](Cc1ccc(O)cc1)NC(=O)CN(CCCCN)C(=O)[C@H](CCCNC(=N)N)NC(=O)[C@H](CCCNC(=N)N)NC(=O)[C@H](CCCNC(=N)N)NC(=O)[C@H](CCCNC(=N)N)NC(=O)[C@H](CCCNC(=N)N)NC(=O)[C@H](CCCNC(=N)N)Nc1ccc([N+](=O)[O-])c2nonc12)C(=O)NCC(=O)N[C@@H](CO)C(=O)N[C@@H](CCCCN)C(=O)N[C@@H](CC(=O)O)C(=O)N[C@@H](Cc1c[nH]c2ccccc12)C(=O)N[C@@H](CCCNC(=N)N)C(=O)N[C@@H](CO)C(=O)N[C@@H](Cc1ccc(O)cc1)C(=O)N[C@@H](Cc1ccc(O)cc1)C(=O)N[C@@H](CO)C(=O)O [1g_NBD] (H-[X2]RRRRR[Nlys]YFTGSKDWRSYYS-OH; C-terminus assumed)						fluorescence from the attached NBD tag is visible inside HEK293T cells
